Results published in US20090105278A1, “Selective inhibitors of human corticosteroid syntheses” (Universitat Des Saarlandes, priority 2004, published 2009).
Counter-ions that a name gives are not always drawn.

Legend:
human CYP11B2 = target: T1, human CYP11B2 (Homo sapiens, UniProt P19099); experiment: V79 MZh 11B2 cells inhibition test; format: cell-based; parameters: expressed in transfected cells; host or cells: V79 MZh11B2 (Chinese hamster lung fibroblasts); details: hamster fibroblasts which express human CYP11B2; deoxycorticosterone substrate 100 nM; read-out: IC50 V79 11B2 hCYP11B2
T1 sequence (P19099 25-503): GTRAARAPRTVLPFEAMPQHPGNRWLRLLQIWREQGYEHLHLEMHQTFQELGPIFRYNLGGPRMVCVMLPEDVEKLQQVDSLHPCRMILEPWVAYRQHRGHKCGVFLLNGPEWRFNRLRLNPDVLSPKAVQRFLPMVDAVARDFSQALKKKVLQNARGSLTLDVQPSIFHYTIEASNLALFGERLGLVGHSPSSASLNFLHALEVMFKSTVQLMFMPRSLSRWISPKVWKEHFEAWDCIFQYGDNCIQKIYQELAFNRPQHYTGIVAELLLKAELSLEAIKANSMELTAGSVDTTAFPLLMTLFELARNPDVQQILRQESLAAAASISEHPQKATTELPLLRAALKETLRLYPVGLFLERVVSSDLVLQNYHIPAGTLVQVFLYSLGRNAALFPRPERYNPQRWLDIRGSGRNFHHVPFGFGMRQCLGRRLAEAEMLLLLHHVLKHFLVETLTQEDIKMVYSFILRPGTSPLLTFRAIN

human CYP17 = target: T2, human CYP17 (Homo sapiens, UniProt P05093); experiment: Percent inhibition of CYP17 (membrane fraction of E. coli pJL17/OR); format: biochemical; details: E. coli which expresses human CYP17; 5 mg/ml protein; progesterone substrate 2.5 μM; inhibitor 2.5 μM; read-out: % Inhibition human CYP17
T2 construct: made in house; host or cells: E. coli pJL17/OR (membrane fraction)
T2 sequence (P05093 1-508): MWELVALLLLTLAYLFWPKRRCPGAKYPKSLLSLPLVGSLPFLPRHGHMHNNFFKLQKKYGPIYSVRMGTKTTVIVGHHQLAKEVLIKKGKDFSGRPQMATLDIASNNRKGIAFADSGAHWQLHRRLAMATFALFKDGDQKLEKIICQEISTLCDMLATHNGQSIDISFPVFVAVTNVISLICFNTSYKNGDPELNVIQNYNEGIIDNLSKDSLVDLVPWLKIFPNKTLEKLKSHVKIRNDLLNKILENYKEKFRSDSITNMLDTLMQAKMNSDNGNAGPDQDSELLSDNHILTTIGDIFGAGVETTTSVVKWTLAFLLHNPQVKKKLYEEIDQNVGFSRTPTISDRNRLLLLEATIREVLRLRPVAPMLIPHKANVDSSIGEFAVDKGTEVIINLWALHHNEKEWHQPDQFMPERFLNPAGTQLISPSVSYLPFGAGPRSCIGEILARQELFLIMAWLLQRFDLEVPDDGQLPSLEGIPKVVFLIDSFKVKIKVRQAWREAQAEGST
Method in brief: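 Membranes were isolated from E. coli pJL17/OR, which coexpresses human CYP17 with rat NADPH-P450-reductase, by lysozyme treatment, sonication and centrifugation at 50,000 g, then stored at −70° C. Reactions were started with diluted membrane suspension (0.8 to 1 mg of protein per ml), incubated at 37° C for 30 min, extracted with EtOAc and analyzed by HPLC. Inhibition was calculated from reduced substrate conversion versus DMSO controls.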

`Fc1ccc2c(c1)CC/C2=C/c1cccc2cnccc12` [Compound 30b, 5-[(Z)-(5-Fluoro-2,3-dihydro-1H-indane-1-ylidene)methyl]isoquinoline Hydrochloride] was tested, and the IC50 (human CYP11B2) was 0.0261 µM and the inhibition at 2.5 µM (human CYP17) was 65%.
`C(=C1/CCc2ccccc21)/c1cnc[nH]1` [Compound 42a, 5-[(E)-2,3-Dihydro-1H-indane-1-ylidenemethyl]-1H-imidazole] gave an IC50 (human CYP11B2) of 0.041 µM and an inhibition at 2.5 µM (human CYP17) of 11%.
Work on `C(=C1\CCc2ccccc21)/c1cnc[nH]1` [Compound 42b, 5-[(Z)-2,3-Dihydro-1H-ind-1-ylidenemethyl]-1H-imidazolium oxalate] yielded an IC50 (human CYP11B2) of 0.011 µM and an inhibition at 2.5 µM (human CYP17) of 1%.
`Brc1ccc2c(c1)CC/C2=C\c1cnc[nH]1.Cl` [Compound 49a, 5-[(E)-(5-Bromo-2,3-dihydro-1H-indene-1-ylidene)methyl]-1H-imidazolium chloride] showed an IC50 (human CYP11B2) of 0.0928 µM and an inhibition at 2.5 µM (human CYP17) of 13%.
